The record followed here is EP0874850B1, “NOVEL TRICYCLIC COMPOUNDS FOR THE INHIBITION OF THE ICE/CED-3 PROTEASE FAMILY OF ENZYMES” (Idun Pharmaceuticals, Inc., priority 1996, dated 1998).

In general, IC50 refers to the midpoint of a concentration-inhibition curve.

Assay type in all cases: biochemical
For assay [1], the target named is mICE. Nature of the assay: Fluorescence enzyme assay, determination of IC50 values (ICE). The settings on record: recombinant enzyme; 30 minutes preincubation at room temperature; substrate Acetyl-Tyr-Val-Ala-Asp-amino-4-methylcoumarin. The procedure: (§1) The substrate is Acetyl-Tyr-Val-Ala-Asp-amino-4-methylcoumarin (AMC) for the ICE assay and Acetyl-Asp-Glu-Val-Asp-amino-4-methylcoumarin for the CPP32, Mch2, Mch3 and Mch5 assays. Enzyme reactions were run in ICE buffer (25 mM HEPES, 1 mM EDTA, 0.1% CHAPS, 10% sucrose, pH 7.5) containing 2 mM DTT at room temperature in duplicate.
(§2) The enzyme and the compound of Formula 1 to be assayed were allowed to preincubate in the microtitre plate wells for 30 minutes at room temperature prior to the addition of substrate to initiate the reaction. Fluorescent AMC product formation was monitored for one hour at room temperature by measuring the fluorescence emission at 460 nm using an excitation wavelength of 360 nm. […]
(§3) The reference compound for this assay was Cbz-ValAlaAsp-H and the values are denoted in Table 1 as "Reference".

For assay [2], the target named is CPP32. Nature of the assay: Fluorescence enzyme assay, determination of IC50 values (CPP32). The settings on record: recombinant enzyme; 30 minutes preincubation at room temperature; substrate Acetyl-Asp-Glu-Val-Asp-amino-4-methylcoumarin. The procedure:
as §1, §2, §3

The target in assay [3] is MCH-2. Nature of the assay: Fluorescence enzyme assay, determination of IC50 values (Mch2). The note with it: 30 minutes preincubation at room temperature; substrate Acetyl-Asp-Glu-Val-Asp-amino-4-methylcoumarin. The procedure:
as §1, §2, §3

The target in a further assay is MCH-3. Nature of the assay: Fluorescence enzyme assay, determination of IC50 values (Mch3). The note with it: 30 minutes preincubation at room temperature; substrate Acetyl-Asp-Glu-Val-Asp-amino-4-methylcoumarin. The procedure:
as §1, §2, §3

For assay [4], the target named is MCH-5. Nature of the assay: Fluorescence enzyme assay, determination of IC50 values (Mch5). The note with it: 30 minutes preincubation at room temperature; substrate Acetyl-Asp-Glu-Val-Asp-amino-4-methylcoumarin. On the procedure:
as §1, §2, §3

For assay [5], the target named is mICE. Put plainly: Determination of dissociation constant Ki and irreversible rate constant k3 for irreversible inhibitors (ICE). An excerpt: (§4) For the irreversible inhibition of a ICE/ced-3 Family Protease enzyme with a competitive irreversible inhibitor; using the model represented by the following formulas: [drawing 15] [drawing 16] The product formation at time t may be expressed as: [formula] where E, I, EI and E-I denote the active enzyme, inhibitor, non-covalent enzyme-inhibitor complex and covalent enzyme-inhibitor adduct, respectively. The Ki value is the overall dissociation constant of the reversible binding steps, and k3 is the irreversible rate constant. The [S] and Ks values are the substate concentration and dissociation constant of the substrate bound to the enzyme, respectively. [E]^T is the total enzyme concentration.
(§5) The above equations were used to determine the Ki and k3 values of a given inhibitor bound to a ICE/ced-3 family protease. Thus, a continuous assay was run for sixty minutes at various concentrations of the inhibitor and the substrate. The assay was formulated essentially the same as described above for generating the data in Table 1, except that the reaction was initiated by adding the enzyme to the substrate-inhibitor mixture. The Ki and k3 values were obtained by simulating the product AMC formation as a function of time according to Equation I. The results of this second assay are set forth below in Table 2. […]

Assay [6] addresses CPP32. Nature of the assay: Determination of dissociation constant Ki and irreversible rate constant k3 for irreversible inhibitors (CPP32).
From the text: as §4, §5

For assay [7], the target named is MCH-2. Nature of the assay: Determination of dissociation constant Ki and irreversible rate constant k3 for irreversible inhibitors (Mch2).
From the text: as §4, §5

For assay [8], the target named is MCH-5. Nature of the assay: Determination of dissociation constant Ki and irreversible rate constant k3 for irreversible inhibitors (Mch5).
From the text: as §4, §5

[9] abbreviates: continuous assay for sixty minutes, reaction initiated by adding the enzyme.

Residues, ends and D or L forms follow the SMILES beside them. *: point of attachment. Cbz = O=C(OCc1ccccc1)*; CH2F = FC* A value given as a limit tells only on which side of the number the result lay.

In the case of `CC(C)[C@H](NC(=O)OCc1ccccc1)C(=O)N[C@@H](C)C(=O)N[C@H](C=O)CC(=O)O` [Ref., Cbz-ValAlaAsp-H] (Cbz-Val-Ala-Asp-aldehyde), the IC50 on mICE [1] was 64 nM; on CPP32 [2] it was 47 µM; against MCH-2 [3], greater than 10 µM; against MCH-3 it was greater than 10 µM; at MCH-5 [4], 2960 nM.

In the case of Cbz-Val-Ala-Asp-CH2F [Reference], the k3/Ki on mICE [5] (Reference) is 214,000 M^-1s^-1; on CPP32 [6] (Reference), 12,200 M^-1s^-1; on MCH-2 [7] (Reference) it was 2,950 M^-1s^-1; on MCH-5 [8] (Reference), 83,300 M^-1s^-1. For the same compound, the Ki on mICE [5] (setting [9]) is 15 nM; at CPP32 [6] (setting [9]) it was 820 nM; at MCH-2 [7] (setting [9]), 594 nM; on MCH-5 [8] (setting [9]), 18 nM.
